Converted amounts (≈) assume the structure as drawn.
How the values were obtained:
[1] = Solubility of lixivaptan in water; assay type: physicochemical
Description: Lixivaptan is very poorly soluble in water (less than 20 ng/mL). Salt formation (a frequently used approach to increase aqueous solubility) was not possible. The bioavailability of lixivaptan can be extremely low in conventional dosage forms (i.e., when blended with excipients and compressed into tablets or filled into capsules).

[2] = Solubility in 1.5% SDS at 25° C.; assay type: physicochemical

Cc1ccc(F)cc1C(=O)Nc1ccc(C(=O)N2Cc3cccn3Cc3ccccc32)c(Cl)c1 [Lixivaptan, 5-fluoro-2-methyl-N-[4-(5H-pyrrolo[2,1-c]-[1,4]-benzodiazepin-10(11H)-ylcarbonyl)-3-chlorophenyl]benzamide]
solubility [1]: < 0.02 µg/mL | Solubility (mg/mL in 1.5% SDS, 25° C.) 1 h ([2]; 1 h): 0.019 mg/mL (≈ 40.1 µM) | solubility at 24 h ([2]; aqueous with cosolvent or surfactant or cyclodextrin, 24 h, read-out: Solubility (mg/mL in 1.5% SDS, 25° C.) 24 h): 0.024 mg/mL (≈ 50.6 µM)

Reference: patent US8877746B2, “Compositions for delivery of insoluble agents” (Cardioklne, Inc, priority 2009, dated 2014)
